Test results: ChEMBL document CHEMBL1126053, “4-Amido-2-carboxytetrahydroquinolines. Structure-activity relationships for antagonism at the glycine site of the NMDA receptor” (J Med Chem, 1992)

Columns and labels:
[1] = target: T1, Glutamate receptor ionotropic, NMDA 1 (Rattus norvegicus, UniProt P35439); experiment: Inhibition of [3H]- glycine binding to NMDA receptor from rat cortical membranes.; format: cell membranes, Membrane
[2] = target: T1, Glutamate receptor ionotropic, NMDA 1; experiment: Inhibition of [3H]- glycine binding to N-methyl-D-aspartate glutamate receptor from rat cortical membranes; format: cell membranes, Membrane

| IC50 [1] [µM] | IC50 [2] [µM] | Compound |
| --- | --- | --- |
| 0.9 | – | CC(=O)N[C@H]1C[C@H](C(=O)O)Nc2cc(Cl)cc(Cl)c21 |
| 0.03 | – | O=C(Cc1ccc(O)cc1)N[C@H]1C[C@H](C(=O)O)Nc2cc(Cl)cc(Cl)c21 |
| 1.7 | – | O=C(NCc1ccccc1)[C@H]1C[C@H](C(=O)O)Nc2cc(Cl)cc(Cl)c21 |
| 0.0074 | – | O=C(Nc1ccccc1)N[C@H]1C[C@H](C(=O)O)Nc2cc(Cl)cc(Cl)c21 |
| 0.51 | – | O=C(O)[C@H]1C[C@H](N2Cc3ccccc3NC2=O)c2c(Cl)cc(Cl)cc2N1 |
| 5.9 | – | O=C(Cc1ccccc1)N[C@H]1C[C@H](C(=O)O)Nc2cc(Cl)cc(Cl)c21 (stereo in doubt; 16) |
| > 1000 | – | N[C@H](Cc1ccccc1)C(=O)N[C@@H]1C[C@@H](C(=O)O)Nc2cc(Cl)cc(Cl)c21 |
| 0.17 | – | O=C(N[C@H]1C[C@H](C(=O)O)Nc2cc(Cl)cc(Cl)c21)C1CCCCC1 |
| 0.025 | – | O=C(N[C@H]1C[C@H](C(=O)O)Nc2cc(Cl)cc(Cl)c21)C1c2ccccc2-c2ccccc21 |
| 0.076 | – | O=C(CCc1ccccc1)N[C@H]1C[C@H](C(=O)O)Nc2cc(Cl)cc(Cl)c21 |
| 0.005 | – | Cc1ccc(NC(=O)N[C@H]2C[C@H](C(=O)O)Nc3cc(Cl)cc(Cl)c32)cc1 |
| 14.1 | – | N[C@@H]1C[C@H](C(=O)O)Nc2cc(Cl)cc(Cl)c21 |
| 10.7 | – | O=C(O)[C@H]1C[C@H](NCc2ccccc2)c2c(Cl)cc(Cl)cc2N1 |
| 0.067 | – | Cc1cc(C)c2c(c1)N[C@@H](C(=O)O)C[C@@H]2NC(=O)Cc1ccccc1 |
| 0.045 | – | CN(C(=O)N[C@H]1C[C@H](C(=O)O)Nc2cc(Cl)cc(Cl)c21)c1ccccc1 |
| 0.37 | – | CCCC(=O)N[C@H]1C[C@H](C(=O)O)Nc2cc(Cl)cc(Cl)c21 |
| 5.2 | – | O=C(O)[C@H]1C[C@H](NS(=O)(=O)c2ccccc2)c2c(Cl)cc(Cl)cc2N1 |
| 6.4 | – | O=C(O)[C@H]1CCc2c(Cl)cc(Cl)cc2N1 |
| 0.006 | – | O=C(O)[C@H]1C[C@H](N2CCN(c3ccccc3)C2=O)c2c(Cl)cc(Cl)cc2N1 |
| 0.019 | – | O=C(O)[C@H]1C[C@H](NC(=O)N(c2ccccc2)c2ccccc2)c2c(Cl)cc(Cl)cc2N1 |

| IC50 [1] [µM] | IC50 [2] [µM] | Compound |
| --- | --- | --- |
| 0.032 | – | O=C(Cc1cccs1)N[C@H]1C[C@H](C(=O)O)Nc2cc(Cl)cc(Cl)c21 |
| 0.039 | – | COc1ccc(CC(=O)N[C@H]2C[C@H](C(=O)O)Nc3cc(Cl)cc(Cl)c32)cc1 |
| 8.3 | – | O=C(N[C@@H]1C[C@H](C(=O)O)Nc2cc(Cl)cc(Cl)c21)c1ccccc1 |
| 0.09 | – | O=C(O)[C@H]1C[C@H](NC(=S)Nc2ccccc2)c2c(Cl)cc(Cl)cc2N1 |
| 11.3 | – | N[C@H]1C[C@H](C(=O)O)Nc2cc(Cl)cc(Cl)c21 |
| 0.11 | – | O=C(CC1CCCCC1)N[C@H]1C[C@H](C(=O)O)Nc2cc(Cl)cc(Cl)c21 |
| 0.03 | – | O=C(C[C@H]1C[C@H](C(=O)O)Nc2cc(Cl)cc(Cl)c21)Nc1ccccc1 |
| 0.079 | – | O=C(N[C@H]1C[C@H](C(=O)O)Nc2cc(Cl)cc(Cl)c21)OCc1ccccc1 |
| – | 0.011 | O=C(Nc1cccc2ccccc12)N[C@H]1C[C@H](C(=O)O)Nc2cc(Cl)cc(Cl)c21 |
| 0.58 | – | N#CN/C(=N\[C@H]1C[C@H](C(=O)O)Nc2cc(Cl)cc(Cl)c21)Nc1ccccc1 |
| 0.01 | – | O=C(Cc1ccccc1)N[C@H]1C[C@H](C(=O)O)Nc2cc(Cl)cc(I)c21 |
| 0.03 | – | O=C(Cc1ccsc1)N[C@H]1C[C@H](C(=O)O)Nc2cc(Cl)cc(Cl)c21 |
| 0.03 | – | O=C(NCc1ccccc1)N[C@H]1C[C@H](C(=O)O)Nc2cc(Cl)cc(Cl)c21 |
| 7 | – | N[C@H](Cc1ccccc1)C(=O)N[C@H]1C[C@H](C(=O)O)Nc2cc(Cl)cc(Cl)c21 |
| 0.17 | – | O=C(CCCc1ccccc1)N[C@H]1C[C@H](C(=O)O)Nc2cc(Cl)cc(Cl)c21 |
| 0.63 | – | O=C(N[C@H]1C[C@H](C(=O)O)Nc2cc(Cl)cc(Cl)c21)c1ccncc1 |
| 0.034 | – | Cc1ccc(CC(=O)N[C@H]2C[C@H](C(=O)O)Nc3cc(Cl)cc(Cl)c32)cc1 |
| 11.4 | – | CC(C)(C)OC(=O)N[C@@H]1C[C@H](C(=O)O)Nc2cc(Cl)cc(Cl)c21 |
| 0.006 | – | O=C(Nc1ccccc1)N[C@H]1C[C@H](C(=O)O)Nc2cc(Cl)cc(I)c21 |
| 0.42 | – | O=C(CN[C@H]1C[C@H](C(=O)O)Nc2cc(Cl)cc(Cl)c21)Nc1ccccc1 |

| IC50 [1] [µM] | IC50 [2] [µM] | Compound |
| --- | --- | --- |
| 0.061 | – | O=C(N[C@H]1C[C@H](C(=O)O)Nc2cc(Cl)cc(Cl)c21)C(c1ccccc1)c1ccccc1 |
| > 100 | – | N[C@@H](Cc1ccccc1)C(=O)N[C@@H]1C[C@@H](C(=O)O)Nc2cc(Cl)cc(Cl)c21 |
| 0.1 | – | O=C(N[C@H]1C[C@H](C(=O)O)Nc2cc(Cl)cc(Cl)c21)c1ccccc1 |
| 1.9 | – | O=C(O)[C@H]1C[C@H](N2C(=O)c3ccccc3C2=O)c2c(Cl)cc(Cl)cc2N1 |
| 0.011 | – | O=C(Cc1ccccc1)N[C@H]1C[C@H](C(=O)O)Nc2cc(Cl)cc(Cl)c21 (stereo in doubt; 15) |
| 1.05 | – | N[C@@H](Cc1ccccc1)C(=O)N[C@H]1C[C@H](C(=O)O)Nc2cc(Cl)cc(Cl)c21 |
| 0.018 | – | Nc1ccc(CC(=O)N[C@H]2C[C@H](C(=O)O)Nc3cc(Cl)cc(Cl)c32)cc1 |
| 0.15 | – | O=C(N[C@H]1C[C@H](C(=O)O)Nc2cc(Cl)cc(Cl)c21)c1ccco1 |
| 0.22 | – | O=C(O)[C@H]1C[C@H](NC(=O)N2CCc3ccccc32)c2c(Cl)cc(Cl)cc2N1 |
| 0.94 | – | CC(C)(C)OC(=O)N[C@H]1C[C@H](C(=O)O)Nc2cc(Cl)cc(Cl)c21 |
| 0.018 | – | Cc1cccc(NC(=O)N[C@H]2C[C@H](C(=O)O)Nc3cc(Cl)cc(Cl)c32)c1 |
| 0.042 | – | O=C(Cc1ccccc1)N[C@H]1C[C@H](C(=O)O)Nc2cc(I)cc(Cl)c21 |
| 0.014 | – | O=C(Cc1ccccc1)N[C@H]1C[C@H](C(=O)O)Nc2cc(Cl)cc(Cl)c21 (stereo in doubt; 14) |
| 0.052 | – | O=C(Cc1ccc(Cl)cc1)N[C@H]1C[C@H](C(=O)O)Nc2cc(Cl)cc(Cl)c21 |
| 0.072 | – | O=C(O)[C@H]1C[C@H](N2Cc3ccccc3CC2=O)c2c(Cl)cc(Cl)cc2N1 |
| 0.027 | – | O=C(O)[C@H]1C[C@H](N2Cc3ccccc3C2=O)c2c(Cl)cc(Cl)cc2N1 |
| 0.0073 | – | Cc1ccccc1NC(=O)N[C@H]1C[C@H](C(=O)O)Nc2cc(Cl)cc(Cl)c21 |
| 0.028 | – | O=C(NC1CCCCC1)N[C@H]1C[C@H](C(=O)O)Nc2cc(Cl)cc(Cl)c21 |
| 0.046 | – | O=C(O)[C@H]1C[C@H](N2CCCC2=O)c2c(Cl)cc(Cl)cc2N1 |
